Measurements reported in patent publication US8895571B2, “Isoindolinone and pyrrolopyridinone derivatives as Akt inhibitors” (Incyte Corporation, priority 2011, dated 2014).

Columns and labels:
Assay type in all cases: biochemical
Full length Akt2 = target: T1, Full length Akt2 (Homo sapiens, UniProt P31751); assay: In vitro Akt kinase enzymatic assay (HTRF), Akt2; conditions: 0.6 nM Akt2, substrate solution with 5 mM ATP, 25° C. 1 hr
T1 construct: Full length Akt1 (cat #P2999), Akt2 (cat #PV3184); purchased PerkinElmer PV3184
T1 sequence (P31751 whole entry): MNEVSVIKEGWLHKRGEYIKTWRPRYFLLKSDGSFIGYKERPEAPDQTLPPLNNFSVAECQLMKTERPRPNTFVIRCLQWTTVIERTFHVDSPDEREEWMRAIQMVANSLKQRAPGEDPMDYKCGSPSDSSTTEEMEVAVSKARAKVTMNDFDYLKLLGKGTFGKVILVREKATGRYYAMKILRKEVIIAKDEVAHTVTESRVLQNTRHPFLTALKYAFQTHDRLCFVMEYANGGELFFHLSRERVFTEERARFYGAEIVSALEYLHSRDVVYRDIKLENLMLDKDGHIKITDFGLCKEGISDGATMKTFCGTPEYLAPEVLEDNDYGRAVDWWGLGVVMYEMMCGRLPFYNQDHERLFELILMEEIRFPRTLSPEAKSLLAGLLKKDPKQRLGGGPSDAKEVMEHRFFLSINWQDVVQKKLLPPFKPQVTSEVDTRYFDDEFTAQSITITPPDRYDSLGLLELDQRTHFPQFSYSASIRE
Protocol: (§1) Compounds herein were tested for inhibitory activity of Akt targets according to the following in vitro assay. Full length Akt1 (cat #P2999), Akt2 (cat #PV3184), Akt3 (cat #PV3185), peptide substrate, Ulight-Crosstide (cat #TRF0106-M), Ultra-Europium anti-phospho-Crosstide (cat #TRF-0202-M), and 10×LANCE detection buffer (cat #CR97-100) were purchased from PerkinElmer. In general, assay buffer conditions were chosen based on obtaining optimal enzymatic and linear activities. The assay buffer contains 50 mM HEPES, 10 mM MgCl2, 5 mM DTT, 0.005% Tween20 at pH 7.8. Compound stock (0.001 mM) was prepared in DMSO. The compound plate was prepared by 3-fold and 11-point serial dilutions. 0.5 μL of the compound in DMSO was transferred from the compound plate to the assay plate. Enzyme solution (0.4 nM of Akt1, 0.6 nM of Akt2 or 0.6 nM of Akt3) was prepared in the assay buffer. Note that the enzyme concentration given is based on the given stock concentration reported by the vendor. 0.1 μM substrate solution was prepared in the assay buffer with addition of 5 mM ATP. 10 μL of the enzyme solution was added to the assay plate and then 10 μL of substrate solution was added to the assay plate. The plate was protected from light and the reaction was incubated at 25° C. for 1 hr. The reaction was stopped by adding 10 μL of a solution containing 30 mM EDTA, and 3 nM Ultra Europium anti-phospho Crosstide in 1× detection buffer. The plate was incubated for 15-30 min at room temperature and HTRF (homogenous time resolved fluorescence) was measured on a plate reader. Percentage of inhibition was calculated for each concentration and IC50 value was generated from curve fitting. See Table 8 for data related to compounds of the examples.

Full length Akt1 = target: T2, Full length Akt1 (Homo sapiens, UniProt P31749); assay: In vitro Akt kinase enzymatic assay (HTRF), Akt1; conditions: 0.4 nM Akt1, substrate solution with 5 mM ATP, 25° C. 1 hr
T2 construct: Full length Akt1 (cat #P2999); purchased PerkinElmer P2999
T2 sequence (P31749 whole entry): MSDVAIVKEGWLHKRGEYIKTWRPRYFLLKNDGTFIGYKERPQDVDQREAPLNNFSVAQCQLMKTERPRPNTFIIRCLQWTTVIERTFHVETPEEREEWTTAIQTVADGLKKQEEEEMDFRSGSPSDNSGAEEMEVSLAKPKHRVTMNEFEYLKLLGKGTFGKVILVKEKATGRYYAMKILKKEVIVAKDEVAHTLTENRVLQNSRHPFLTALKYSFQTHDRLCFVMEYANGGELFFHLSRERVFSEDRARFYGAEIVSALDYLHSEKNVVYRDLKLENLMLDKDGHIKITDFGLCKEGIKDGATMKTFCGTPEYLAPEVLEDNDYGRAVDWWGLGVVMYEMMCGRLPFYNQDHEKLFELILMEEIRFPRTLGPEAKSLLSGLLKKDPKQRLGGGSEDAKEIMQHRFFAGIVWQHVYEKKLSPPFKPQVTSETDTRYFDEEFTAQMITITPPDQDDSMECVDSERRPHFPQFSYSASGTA
Protocol: as §1

Full length PKA = target: T3, Full length PKA (Homo sapiens, UniProt P17612); assay: PKA in vitro enzymatic assay (HTRF); conditions: 0.035 nM enzyme solution, substrate solution with 5 mM ATP, 25° C. 1 hr
T3 construct: Full length PKA (cat #P2912); purchased Invitrogen P2912
Protocol: Full length PKA (cat #P2912), peptide substrate, fluorescein CREBtide peptide (cat #PV3508), Tb-Crebtide p-S133 Ab (cat #PV3566), and Lanthascreen TR-FRET Dilution Buffer stored (part # PV3574) were purchased from Invitrogen. In general, assay buffer conditions were chosen based on obtaining optimal and linear enzymatic activities. The assay buffer contains 50 mM HEPES, 10 mM MgCl2, 5 mM DTT, 0.005% Tween20 at pH 7.8. Compound stock (0.001 mM) was prepared in DMSO. The compound plate was prepared by 3-fold and 11-point serial dilutions. 0.5 μL of the compound in DMSO was transferred from the compound plate to the assay plate. 0.035 nM enzyme solution was prepared in the assay buffer. Note that the enzyme concentration given is based on the given stock concentration reported by the vendor. 0.1 μM substrate solution was prepared in the assay buffer with addition of 5 mM ATP. 10 μL of the enzyme solution was added to the assay plate and then 10 μL of substrate solution was added to the assay plate. The plate was protected from light and the reaction was incubated at 25° C. for 1 hr. The reaction was stopped by adding 10 μL of a solution containing 30 mM EDTA, and 1.5 nM Tb-Crebtide p-S133 Ab in 1× detection buffer. The plate was incubated for 15-30 min at room temperature and HTRF (homogenous time resolved fluorescence) was measured on a plate reader. Percentage of inhibition was calculated for each concentration and IC50 value was generated from curve fitting. See Table 8 for data related to compounds of the examples.

Full length Akt3 = target: T4, Full length Akt3 (Homo sapiens, UniProt Q9Y243); assay: In vitro Akt kinase enzymatic assay (HTRF), Akt3; conditions: 0.6 nM Akt3, substrate solution with 5 mM ATP, 25° C. 1 hr
T4 construct: Full length Akt1 (cat #P2999), Akt2 (cat #PV3184), Akt3 (cat #PV3185); purchased PerkinElmer PV3185
T4 sequence (Q9Y243 whole entry): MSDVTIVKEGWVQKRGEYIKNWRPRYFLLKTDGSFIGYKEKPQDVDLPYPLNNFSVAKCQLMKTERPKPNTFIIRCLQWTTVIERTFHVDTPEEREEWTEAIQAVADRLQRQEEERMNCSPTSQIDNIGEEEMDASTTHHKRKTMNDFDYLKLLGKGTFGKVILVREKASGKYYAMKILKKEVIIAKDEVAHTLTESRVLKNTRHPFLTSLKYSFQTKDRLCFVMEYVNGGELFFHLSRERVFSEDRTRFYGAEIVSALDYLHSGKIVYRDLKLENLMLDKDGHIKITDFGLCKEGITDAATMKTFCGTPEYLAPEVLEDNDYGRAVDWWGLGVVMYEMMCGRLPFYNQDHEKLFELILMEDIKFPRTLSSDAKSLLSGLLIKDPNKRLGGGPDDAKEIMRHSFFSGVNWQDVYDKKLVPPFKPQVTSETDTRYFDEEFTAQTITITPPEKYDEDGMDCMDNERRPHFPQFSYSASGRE
Protocol: as §1

SMILES	IC50 (Full length Akt2)	IC50 (Full length Akt1)	IC50 (Full length PKA)	IC50 (Full length Akt3)
COc1cc(C[C@@H](CN)N2Cc3cc(-c4ccnn4C)ccc3C2=O)ccn1 [Example 77, 2-{(1S)-2-amino-1-[(2-methoxypyridin-4-yl)methyl]ethyl}-5-(1-methyl-1H-pyrazol-5-yl)isoindolin-1-one]	> 5 µM	0.5 to 5 µM	> 5 µM	> 5 µM
Cn1ncc(Cl)c1-c1ccc2c(c1)CN([C@H](CNC1CCCC1)Cc1cccc(F)c1)C2=O [Example 35, 5-(4-chloro-1-methyl-1H-pyrazol-5-yl)-2-[(1S)-2-(cyclopentylamino)-1-(3-fluorobenzyl)ethyl]isoindolin-1-one]	0.5 to 5 µM	< 0.5 µM	> 5 µM	0.5 to 5 µM
Cn1cc(-c2cccc(C[C@@H](CN)N3Cc4cc(-c5ccnn5C)ccc4C3=O)c2)cn1 [Example 83, 2-{(1S)-2-amino-1-[3-(1-methyl-1H-pyrazol-4-yl)benzyl]ethyl}-5-(1-methyl-1H-pyrazol-5-yl)isoindolin-1-one]	0.5 to 5 µM	0.5 to 5 µM	> 5 µM	> 5 µM
Cn1ncc(-c2cccc3ccccc23)c1-c1ccc2c(c1)CN([C@H](CN)Cc1cccc(F)c1)C2=O [Example 22, 2-[(1S)-2-amino-1-(3-fluorobenzyl)ethyl]-5-[1-methyl-4-(1-naphthyl)-1H-pyrazol-5-yl]isoindolin-1-one]	> 5 µM	> 5 µM	> 5 µM	> 5 µM
COc1cccc(C(CN)N2Cc3cc(-c4ccnn4C)ccc3C2=O)c1 (centres unmarked) [Example 119, 2-[2-amino-1-(3-methoxyphenyl)ethyl]-5-(1-methyl-1H-pyrazol-5-yl)isoindolin-1-one]	< 0.5 µM	< 0.5 µM	0.5 to 5 µM	0.5 to 5 µM
Cn1ncc(Cl)c1-c1ccc2c(n1)CN([C@H](CN)Cc1ccccc1)C2=O [Example 112, 6-[(1S)-2-amino-1-benzylethyl]-2-(4-chloro-1-methyl-1H-pyrazol-5-yl)-6,7-dihydro-5H-pyrrolo[3,4-b]pyridin-5-one]	0.5 to 5 µM	0.5 to 5 µM	> 5 µM	0.5 to 5 µM
Cn1ncc(Cl)c1-c1ccc2c(c1)CN([C@H](CN)Cc1ccc(C#N)cc1)C2=O [Example 63, 4-{(2S)-3-amino-2-[5-(4-chloro-1-methyl-1H-pyrazol-5-yl)-1-oxo-1,3-dihydro-2H-isoindol-2-yl]propyl}benzonitrile]	0.5 to 5 µM	< 0.5 µM	> 5 µM	0.5 to 5 µM
CN(C)C[C@H](Cc1cccc(F)c1)N1Cc2cc(-c3c(Cl)cnn3C)ccc2C1=O [Example 38, 5-(4-chloro-1-methyl-1H-pyrazol-5-yl)-2-[(1S)-2-(dimethylamino)-1-(3-fluorobenzyl)ethyl]isoindolin-1-one]	> 5 µM	0.5 to 5 µM	> 5 µM	> 5 µM
Cn1ncc(-c2ccncc2)c1-c1ccc2c(c1)CN([C@H](CN)Cc1cccc(F)c1)C2=O [Example 18, 2-[(1S)-2-amino-1-(3-fluorobenzyl)ethyl]-5-(1-methyl-4-pyridin-4-yl-1H-pyrazol-5-yl)isoindolin-1-one]	> 5 µM	> 5 µM	> 5 µM	0.5 to 5 µM
Cn1nccc1-c1ccc2c(c1)CN([C@H](CN)Cc1cscn1)C2=O [Example 82, 2-[(1S)-2-amino-1-(1,3-thiazol-4-ylmethyl)ethyl]-5-(1-methyl-1H-pyrazol-5-yl)isoindolin-1-one]	0.5 to 5 µM	< 0.5 µM	> 5 µM	0.5 to 5 µM
CNC[C@H](Cc1cccc(F)c1)N1Cc2cc(-c3c(Cl)cnn3C)ccc2C1=O [Example 30, 5-(4-chloro-1-methyl-1H-pyrazol-5-yl)-2-[(1S)-1-(3-fluorobenzyl)-2-(methylamino)ethyl]isoindolin-1-one]	0.5 to 5 µM	< 0.5 µM	> 5 µM	0.5 to 5 µM
CN(C)CC(c1ccccc1)N1Cc2cc(-c3c(Cl)cnn3C)ccc2C1=O (centres unmarked) [Example 121, 5-(4-chloro-1-methyl-1H-pyrazol-5-yl)-2-[2-(dimethyl-amino)-1-phenylethyl]iso-indolin-1-one]	> 5 µM	> 5 µM	> 5 µM	> 5 µM
Cn1ncc(-c2ccc3ccccc3c2)c1-c1ccc2c(c1)CN([C@H](CN)Cc1cccc(F)c1)C2=O [Example 21, 2-[(1S)-2-amino-1-(3-fluorobenzyl)ethyl]-5-[1-methyl-4-(2-naphthyl)-1H-pyrazol-5-yl]isoindolin-1-one]	> 5 µM	0.5 to 5 µM	> 5 µM	< 0.5 µM
Cn1nccc1-c1ccc2c(c1)CN(C(CN)c1ccc(F)cc1)C2=O (centres unmarked) [Example 118, 2-[2-amino-1-(4-fluorophenyl)ethyl]-5-(1-methyl-1H-pyrazol-5-yl)isoindolin-1-one]	0.5 to 5 µM	< 0.5 µM	> 5 µM	> 5 µM
Cn1ncc(-c2ccccc2)c1-c1ccc2c(c1)CN([C@H](CN)Cc1cccc(F)c1)C2=O [Example 14, 2-[(1S)-2-amino-1-(3-fluorobenzyl)ethyl]-5-(4-phenyl-1-methyl-1H-pyrazol-5-yl)isoindolin-1-one]	0.5 to 5 µM	0.5 to 5 µM	> 5 µM	< 0.5 µM
Cn1nccc1-c1ccc2c(n1)CN([C@H](CN)Cc1ccccc1)C2=O [Example 111, 6-[(1S)-2-amino-1-benzylethyl]-2-(1-methyl-1H-pyrazol-5-yl)-6,7-dihydro-5H-pyrrolo[3,4-b]pyridin-5-one]	0.5 to 5 µM	0.5 to 5 µM	> 5 µM	> 5 µM
Cn1ncc(-c2cccs2)c1-c1ccc2c(c1)CN([C@H](CN)Cc1cccc(F)c1)C2=O [Example 15, 2-[(1S)-2-amino-1-(3-fluorobenzyl)ethyl]-5-[1-methyl-4-(2-thienyl)-1H-pyrazol-5-yl]isoindolin-1-one]	> 5 µM	0.5 to 5 µM	> 5 µM	< 0.5 µM
Cn1ncc(Cl)c1-c1ccc2c(c1)CN([C@H](CN)Cc1cccc(-c3ccsc3)c1)C2=O [Example 71, 2-{(1S)-2-amino-1-[3-(3-thienyl)benzyl]ethyl}-5-(4-chloro-1-methyl-1H-pyrazol-5-yl)isoindolin-1-one]	0.5 to 5 µM	< 0.5 µM	> 5 µM	0.5 to 5 µM
COc1ncccc1-c1cnn(C)c1-c1ccc2c(c1)CN([C@H](CN)Cc1cccc(F)c1)C2=O [Example 27, 2-[(1S)-2-amino-1-(3-fluorobenzyl)ethyl]-5-[4-(2-methoxypyridin-3-yl)-1-methyl-1H-pyrazol-5-yl]isoindolin-1-one]	> 5 µM	> 5 µM	> 5 µM	> 5 µM
COc1cccc(C(CN)N2Cc3cc(-c4c(Cl)cnn4C)ccc3C2=O)c1 (centres unmarked) [Example 125, 2-[2-amino-1-(3-methoxyphenyl)ethyl]-5-(4-chloro-1-methyl-1H-pyrazol-5-yl)isoindolin-1-one]	0.5 to 5 µM	< 0.5 µM	> 5 µM	0.5 to 5 µM
